The target of one assay is PRMT5/MEP50 (Homo sapiens (Human), UniProt O14744). The assay is described as follows: PRMT5 Biochemical Assay (PRMT5/MEP50 enzyme assay on peptide substrate, 3H-SAM Flashplate). Particulars: PRMT5/MEP50 4 nM, 3H-SAM 75 nM, peptide 40 nM. An excerpt: S-adenosylmethionine (SAM), S-adenosylhomocysteine (SAH), bicine, KCl, Tween20, dimethylsulfoxide (DMSO), bovine skin gelatin (BSG), and Tris(2-carboxyethyl)phosphine hydrochloride solution (TCEP) were purchased from Sigma-Aldrich at the highest level of purity possible. ^3H-SAM was purchase from American Radiolabeled Chemicals with a specific activity of 80 Ci/mmol. 384-well streptavidin Flashplates were purchased from PerkinElmer.
Sequence of PRMT5/MEP50 (O14744 other isoform, or with tags, fused parts or gaps): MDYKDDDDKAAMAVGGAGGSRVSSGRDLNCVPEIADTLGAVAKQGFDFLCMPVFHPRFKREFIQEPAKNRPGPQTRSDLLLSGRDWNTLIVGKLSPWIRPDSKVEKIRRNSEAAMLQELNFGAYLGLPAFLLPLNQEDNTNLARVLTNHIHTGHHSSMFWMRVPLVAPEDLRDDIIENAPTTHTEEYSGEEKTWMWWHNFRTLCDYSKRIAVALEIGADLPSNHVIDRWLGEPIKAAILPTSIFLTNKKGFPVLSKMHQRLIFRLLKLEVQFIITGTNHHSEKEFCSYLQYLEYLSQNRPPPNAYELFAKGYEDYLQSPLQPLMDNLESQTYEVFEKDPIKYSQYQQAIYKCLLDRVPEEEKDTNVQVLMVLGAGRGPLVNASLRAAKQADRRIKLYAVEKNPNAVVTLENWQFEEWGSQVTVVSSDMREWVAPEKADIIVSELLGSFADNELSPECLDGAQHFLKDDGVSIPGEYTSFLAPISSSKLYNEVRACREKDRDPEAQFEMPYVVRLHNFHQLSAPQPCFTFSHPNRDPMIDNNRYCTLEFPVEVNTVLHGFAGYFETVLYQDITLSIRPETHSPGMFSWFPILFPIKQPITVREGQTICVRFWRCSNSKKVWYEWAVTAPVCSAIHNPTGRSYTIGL
Sequence of PRMT5/MEP50 (Q9BQA1 other isoform, or with tags, fused parts or gaps partner): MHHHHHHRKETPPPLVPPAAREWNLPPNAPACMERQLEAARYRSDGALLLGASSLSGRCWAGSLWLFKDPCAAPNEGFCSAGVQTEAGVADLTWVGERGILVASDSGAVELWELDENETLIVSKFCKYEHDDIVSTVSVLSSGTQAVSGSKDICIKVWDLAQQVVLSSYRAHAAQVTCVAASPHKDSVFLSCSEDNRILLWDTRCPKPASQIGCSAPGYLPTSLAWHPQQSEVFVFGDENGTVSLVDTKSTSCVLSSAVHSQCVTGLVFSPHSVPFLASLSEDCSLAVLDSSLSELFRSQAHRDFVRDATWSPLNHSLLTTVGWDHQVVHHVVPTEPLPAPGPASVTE
Peptide representative of human histone H4 residues 1-15 was synthesized with a C-terminal linker-affinity tag motif and a C-terminal amide cap by 21st Century Biochemicals. The peptide was high high-performance liquid chromatography (HPLC) purified to greater than 95% purity and confirmed by liquid chromatography mass spectrometry (LC-MS). The sequence was Ac-[…][K-Biot]-amide (SEQ ID NO.:3).
Full-length human PRMT5 (NM_006109.3) transcript variant 1 clone was amplified from a fetal brain cDNA library, incorporating flanking 5′ sequence encoding a FLAG tag ([…]) (SEQ ID NO.:4) fused directly to Ala 2 of PRMT5. Full-length human MEP50 (NM_024102) clone was amplified from a human testis cDNA library incorporating a 5′ sequence encoding a 6-histidine tag (MHHHHHH) (SEQ ID NO.:5) fused directly to Arg 2 of MEP50. The amplified genes were sublconed into pENTR/D/TEV (Life Technologies) and subsequently transferred by Gateway™ attL×attR recombination to pDEST8 baculvirus expression vector (Life Technologies).
Recombinant baculovirus and Baculovirus-Infected Insect Cells (BIIC) were generated according to Bac-to-Bac kit instructions (Life Technologies) and Wasilko, 2006, respectively. Protein over-expression was accomplished by infecting exponentially growing Spodoptera frugiperda (SF9) cell culture at 1.2×10^6 cell/ml with a 5000 fold dilution of BIIC stock. Infections were carried out at 27° C. for 72 hours, harvested by centrifugation, and stored at −80° C. for purification.
Flag-PRMT5/6His-MeP50 was eluted with 300 mM Imidazole in the same buffer. The purity of recovered protein was 87%. Reference: Wasilko, D. J. and S. E. Lee: “TIPS: titerless infected-cells preservation and scale-up” Bioprocess J., 5 (2006), pp. 29-32.
General Procedure for PRMT5/MEP50 Enzyme Assays on Peptide Substrates.
The assays were all performed in a buffer consisting of 20 mM Bicine (pH=7.6), 1 mM TCEP, 0.005% BSG, and 0.002% Tween20, prepared on the day of use. Compounds in 100% DMSO (1 ul) were spotted into a polypropylene 384-well V-bottom plates (Greiner) using a Platemate Plus outfitted with a 384-channel head (Thermo Scientific). DMSO (1 ul) was added to Columns 11, 12, 23, 24, rows A-H for the maximum signal control and 1 ul of SAH, a known product and inhibitor of PRMT5/MEP50, was added to columns 11, 12, 23, 24, rows I-P for the minimum signal control. A cocktail (40 ul) containing the PRMT5/MEP50 enzyme and the peptide was added by Multidrop Combi (Thermo-Fisher). The compounds were allowed to incubate with PRMT5/MEP50 for 30 min at 25 degrees Celsius, then a cocktail (10 ul) containing ^3H-SAM was added to initiate the reaction (final volume=51 ul). The final concentrations of the components were as follows: PRMT5/MEP50 was 4 nM, ^3H-SAM was 75 nM, peptide was 40 nM, SAH in the minimum signal control wells was 100 uM, and the DMSO concentration was 1%. The assays were stopped by the addition of non-radioactive SAM (10 ul) to a final concentration of 600 uM, which dilutes the ^3H-SAM to a level where its incorporation into the peptide substrate is no longer detectable. 50 ul of the reaction in the 384-well polypropylene plate was then transferred to a 384-well Flashplate and the biotinylated peptides were allowed to bind to the streptavidin surface for at least 1 hour before being washed three times with 0.1% Tween20 in a Biotek ELx405 plate washer. […]

Assay [1] deals with Symmetric Di-Methyl Arginine in Z-138 cells. The assay is described as follows: Z-138 Methylation Assay (In Cell Western for symmetric di-methyl arginine). It is filed as cell-based. Conditions: Homo sapiens, 96 hours incubation, read-out: ICW EC50. An excerpt:
[formula] Where top and bottom are the normally allowed to float, but may be fixed at 100 or 0 respectively in a 3-parameter fit. The Hill Coefficient normally allowed to float but may also be fixed at 1 in a 3-parameter fit. Y is the % inhibition and X is the compound concentration. Z-138 Methylation Assay
Z-138 suspension cells were purchased from ATCC (American Type Culture Collection, Manassas, Va.). RPMI/Glutamax medium, penicillin-streptomycin, heat inactivated fetal bovine serum, and D-PBS were purchased from Life Technologies, Grand Island, N.Y., USA. Odyssey blocking buffer, 800CW goat anti-rabbit IgG (H+L) antibody, and Licor Odyssey infrared scanner were purchased from Licor Biosciences, Lincoln, Nebr., USA. Symmetric di-methyl arginine antibody was purchased from EMD Millipore, Billerica, Mass., USA. […]
First, the ratio for each well was determined by:
Each plate included fourteen control wells of DMSO only treatment (minimum inhibition) as well as fourteen control wells for maximum inhibition treated with 3 μM of a reference compound (Background wells). The average of the ratio values for each control type was calculated and used to determine the percent inhibition for each test well in the plate. […] Percent inhibition was determined and IC50 curves were generated using triplicate wells per concentration of compound. […]

The test system of a further assay is Z-138 cell line. The assay is described as follows: Z-138 Proliferation Assay (Cell Titer Glo). In kind it is cell-based. Particulars: Homo sapiens, 120 h; Z-138 cells, 5 days, top concentration 20 μM. From the text:
[formula] Z-138 Proliferation Assay
Z-138 suspension cells were purchased from ATCC (American Type Culture Collection, Manassas, Va.). RPMI/Glutamax medium, penicillin-streptomycin, heat inactivated fetal bovine serum were purchased from Life Technologies, Grand Island, N.Y., USA. V-bottom polypropylene 384-well plates were purchased from Greiner Bio-One, Monroe, N.C., USA. Cell culture 384-well white opaque plates were purchased from Perkin Elmer, Waltham, Mass., USA. Cell-Titer Glo® was purchased from Promega Corporation, Madison, Wis., USA. SpectraMax M5 plate reader was purchased from Molecular Devices LLC, Sunnyvale, Calif., USA. […]
For the assessment of the effect of compounds on the proliferation of the Z-138 cell line, exponentially growing cells were plated in 384-well white opaque plates at a density of 10,000 cells/ml in a final volume of 50 μl of assay medium. […] Cell viability was measured by quantitation of ATP present in the cell cultures, adding 35 μl of Cell Titer Glo® reagent to the cell plates. Luminescence was read in the SpectraMax M5 microplate reader. The concentration of compound inhibiting cell viability by 50% was determined using a 4-parametric fit of the normalized dose response curves.

On to `Cn1ncc2ccc(OCC(=O)NC[C@@H](O)CN3Cc4ccccc4C3)cc21` [Compound 25], for which, on PRMT5/MEP50, the IC50 fell in the range of 10 to 50 µM. With `CN1CCOc2cccc(OCC(=O)NCC(O)CN3Cc4ccccc4C3)c21` (stereo not shown) [Compound 10, N-(2-hydroxy-3-(isoindolin-2-yl)propyl)-2-((4-methyl-3,4-dihydro-2H-benzo[b][1,4]oxazin-5-yl)oxy)acetamide], the half-maximal inhibitory concentration (IC50) at PRMT5/MEP50 was 0.101 to 1 µM. In addition, the EC50 in assay [1] is 0.101 to 1 µM; in the assay with Z-138 cell line it was above 20 µM. For the molecule `C[C@H](Oc1cccc2cccnc12)C(=O)NC[C@H](O)CN1Cc2ccccc2C1` [Compound 1], the half-inhibitory concentration (IC50) at PRMT5/MEP50 fell in the range of 1 to 10 µM.

As to `CN1CCOc2cccc(OCC(=O)NC[C@@H](O)CN3Cc4ccccc4C3)c21` [Compound 22], the concentration for half-maximal inhibition (IC50) at PRMT5/MEP50 lay in the range of 0.101 to 1 µM. On the same count and under the same terms, under `Cn1ncc2ccc(OCC(=O)NC[C@H](O)CN3Cc4ccccc4C3)cc21` [Compound 27] stands 0.101 to 1 µM; under `Cn1cnc2ccc(-c3cccc(OC[C@H](O)CN4Cc5ccccc5C4)c3)cc21` [Compound 17, (R)-1-(isoindolin-2-yl)-3-(3-(1-methyl-1H-benzo[d]imidazol-6-yl)phenoxy)propan-2-ol], 1 to 10 µM. Turning to `O=C(NCC(O)CN1Cc2ccccc2C1)c1cccc(NC2CCOCC2)c1` (stereo not shown) [Compound 8], the concentration for a half-maximal effect (EC50) in assay [1] lay within 0.101 to 1 µM. As for `Cn1cnc2ccc(-c3cccc(OC[C@@H](O)CN4Cc5ccccc5C4)c3)cc21` [Compound 14], at PRMT5/MEP50, the IC50 lay in the range of 10 to 50 µM. Same read-out and setting: then `C[C@H](Oc1cccc2cccnc12)C(=O)NC[C@@H](O)CN1Cc2ccccc2C1` [Compound 6], with above 10 µM; and `C[C@@H](Oc1cccc2cccnc12)C(=O)NC[C@@H](O)CN1Cc2ccccc2C1` [Compound 3, (R)—N—((R)-2-hydroxy-3-(isoindolin-2-yl)propyl)-2-(quinolin-8-yloxy)propanamide], with 1 to 10 µM. With `O=C(NC[C@H](O)CN1Cc2ccccc2C1)c1ccnc(NC2CCOCC2)c1` [Compound 30], on PRMT5/MEP50, the concentration for half-maximal inhibition (IC50) is below 0.1 µM. The same measure, in the same setting: then `CN(C)S(=O)(=O)c1ccccc1OCC(=O)NC[C@@H](O)CN1Cc2ccccc2C1` [Compound 21], with 0.101 to 1 µM; and `CN(C)S(=O)(=O)c1ccccc1OCC(=O)NC[C@H](O)CN1Cc2ccccc2C1` [Compound 23], with below 0.1 µM. Turning to `CN1CCOc2cccc(OCC(=O)NC[C@H](O)CN3Cc4ccccc4C3)c21` [Compound 26], on PRMT5/MEP50, the IC50 is 0.101 to 1 µM.

The values above are taken from patent publication US9732072B2, “PRMT5 inhibitors and uses thereof” (Epizyme, Inc., priority 2012, dated 2017).
